US6352993B1, “Pyrimidine derivatives and processes for the preparation thereof” (Yuhan Corporation, priority 1997, dated 2002)

Tests used:
[1] = tested on: gastric secretion in pylorus-ligated Sprague-Dawly rats; assay: Inhibition of gastric secretion (pylorus-ligated rats, Shay method); type: in vivo; settings: 20 mg/kg intraduodenally, 5 hours; for Relative conc.: gastric juice acidity relative to omeprazole, equation (II); for Relative volume: gastric juice amount relative to omeprazole, equation (I); for Relative Acid Output: total acid output relative to omeprazole, equation (III)
Protocol: Test 2: Inhibition of gastric secretion
In accordance with the method disclosed in Shay, H., et al., Gastroenterology 5 43-61(1945), Test 2 was carried out.
Sprague-Dawly rats having a body weight of 170±10 g were divided into 3 groups(n=5) and deprived of food for 24 hours before the experiment with free access to water. Under ether anesthesia, the abdomen was incised, and the pylorus was ligated. As a comparative group, Group 1 was administered intraduodenally in a volume of 0.5 ml/200 g of 30% aqueous polyethylene glycol 400 solution. Groups 2 and 3 were administered intraduodenally with the compound of Example and omeprazole, respectively, each of which was suspended in 30% aqueous polyethylene glycol 400 solution at a concentration of 20 mg/kg. After closing the abdominal cavity, the rats were placed for 5 hours and then killed by cervical dislocation. The stomach was extracted to obtain gastric juice.
Tne gastric juice was centrifuged at 1,000 g to remove precipitates. The amount and acidity of the gastric juice were measured. Relative volumes, relative acid concentrations and relative acid outputs of the test compounds were calculated from equations(I), (II) and (III) and the results are shown in Table 2.
Relative volume=(the average amount of gastric juice of Group 1—the average amount of gastric juice of Group 2)/(the average amount of gastric juice of Group 1−the average amount of gastric juice of Group 3)—(I)
Relative acid concerntration=(the average acidity of Group 1—the average acidity of Group 2)/(the average acidity of Group 1—the average acidity of Group 3)—(II)
Relative acid output (the total amount of acid output of Group 1—the total amount of acid output of Group 2)/(the total amount of acid output of Group 1—the total amount of acid output of Group 3)—(m)

[2] = target: proton pump (H+/K+-ATPase) (UniProt P19156); assay: Inhibition of proton pump (H+/K+-ATPase activity); type: biochemical; set-up: Effect ratio; settings: relative to omeprazole IC50
Protocol: (§1) Test 1: Inhibition of proton pump (H^+/K^+-ATPase activity)
(§2) A proton pump enzyme was prepared by the same method as in the Experiment 1-1 of WO 94/14795. Further, the inhibitory effect of proton pump activity was measured by the same method as in Experiment 1-2 of WO 94/14795.
(§3) Namely, the proton pump activity stimulated by Mg^++ was used as a negative comparative group, and the activity stimulated by Mg^++ and K^+ was used as a positive comparative group. The comparative compound was omeprazole.
(§4) Test tubes were divided into 4 groups: Group 1 as negative comparative group(n=3), Group 2 as positive comparative group(n=3), Group 3(n=5×2) to be administered with the compound of the present invention and Group 4(n=5×2) to be administered with the comparative compound.
(§5) The inhibitory effects of Groups 3 and 4 on proton pump activity were measured by employing the compound prepared in Examples and omeprazole, respectively, each of which was dissolved in dimethylsulfoxide at 5 different concentrations.
(§6) To each of Groups 1, 2, 3 and 4 were added 100 μl of magnesium chloride(40 mM) dissolved in 40 mM Tris-HCI buffer(ph 6.0) and 100 μg of the enzyme source. The 50 μl of potassium chloride(50 mM) and 50 μl of ammonium chloride(6 mM) dissolved in 40 mM Tris-HCl buffer(pH 6.0) were added to all groups except for group 1.
(§7) 10 μl of dimethylsulfoxide was added to each of Groups 1 and 2; and to Group 3 was added 10 μl of dimethylsulfoxide solution prepared by dissolving compound of EXAMPLE at 5 different concentration(n=5×2). To Group 4, 10 μl of the solution prepared by dissolving omeprazole in dimethylsulfoxide at 5 different concentration(37.6, 21.4, 12.2, 7.0 and 4.0 μM) was added(n=5×2). 40 mM Tris-HCI buffer(pH=6.0) was added thereto so as to make the total volume 400 μl.
(§8) Thereafter, the test tube of each Group were placed at 37° C. for 30 minutes for the preincubation. 100 μl ATP solution (6.6 mM) was added until the reaction volume became 500 μl. After the reaction was carried out at 37° C. for 30 minutes, 25% cold trichloroacetic acid was added to terminate the enzyme reaction. The released inorganic phosphate was measured by an automatic analyzer(Express 550, coming).
(§9) The difference between Group 1 and Group 2 represents the proton pump activity activated by K^+ only. The IC50s of Group 3 and 4 were calculated from Litchfield-wilcoxon equation[see, e.g., J. Pharrnacol. Exp. Ther., 96, 99(1949)]. The concentrations of the test compounds inhibiting 50% of the proton pump activity are represented as IC50 in Table 1.

[3] = target: proton pump (H+/K+-ATPase) (UniProt P19156); assay: Inhibition of proton pump (H+/K+-ATPase activity); type: biochemical; set-up: other: K+-stimulated proton pump activity, pH 6.0, 37°; settings: K+-stimulated proton pump activity, pH 6.0, 37° C., 30 minutes preincubation; read-out: IC50 (concentration inhibiting 50% of the proton pump activity)
Protocol: as §1, §2, §3, §4, §5, §6, §7, §8, §9

| Effect ratio [2] | IC50 [3] [nM] | Structure (SMILES) | Relative conc. [1] | Relative volume [1] | Relative Acid Output [1] |
| --- | --- | --- | --- | --- | --- |
| 6.0 | 1850 | CCCNc1nc(COC)c(C)c(N2CCc3ccccc3C2)n1.Cl [Example 25, 6-methoxymethyl-5-methyl-2-(2-methylethylamino)-4-(1,2,3,4-tetrahydroisoquinolin-2-yl)pyrimidine hydrochloride] | 0.52 | 1.00 | 0.86 |
| 4.3 | 2600 | COCc1nc(Nc2ccc(F)cc2)nc(N2CCc3ccccc3C2)c1C.Cl [Example 26, 6-methoxymethyl-5-methyl-2-(4-fluorophenylamino)-4-(1,2,3,4-tetrahydroisoquinolin-2-yl)pyrimidine hydrochloride] | 0.64 | 0.67 | 0.74 |
| 7.2 | 1550 | COCc1nc(Nc2ccc(F)cc2C)nc(N2CCc3ccccc3C2)c1C.Cl [Example 27, 6-methoxymethyl-5-methyl-2-(4-fluoro-2-methylphenylamino)-4-(1,2,3,4-tetrahydroisoquinolin-2-yl)pyrimidine hydrochloride] | 0.68 | 0.99 | 0.90 |
| 6.4 | 1740 | COCc1nc(Nc2ccc(F)cc2)nc(N2CCc3ccccc3C2C)c1C.Cl (stereo not drawn) [Example 28, 6-methoxymethyl-5-methyl-2-(4-fluorophenylamino)-4-(1-methyl-1,2,3,4-tetrahydroisoquinolin-2-yl)pyrimidine hydrochloride] | 0.60 | 0.78 | 0.78 |
| 4.4 | 2550 | COCc1nc(Nc2ccc(F)cc2C)nc(N2CCc3ccccc3C2C)c1C.Cl (stereo not drawn) [Example 29, 6-methoxymethyl-5-methyl-2-(2-methyl-4-fluorophenylamino)-4-(1-methyl-1,2,3,4-tetrahydroisoquinolin-2-yl)pyrimidine hydrochloride] | 0.81 | 0.78 | 0.88 |
| 4.3 | 2560 | COCc1nc(Nc2ccccc2)nc(N2CCc3ccccc3C2C)c1C.Cl (stereo not drawn) [Example 31, 6-methoxymethyl-5-methyl-2-phenylamino-4-(1-methyl-1,2,3,4-tetrahydroisoquinolin-2-yl)pyrimidine hydrochloride] | 0.97 | 1.06 | 1.01 |
| 8.3 | 1340 | Cc1c(CO)nc(Nc2ccccc2)nc1N1CCc2ccccc2C1C.Cl (stereo not drawn) [Example 32, 6-hydroxymethyl-5-methyl-2-phenylamino-4-(1-methyl-1,2,3,4-tetrahydroisoquinolin-2-yl)pyrimidine hydrochloride] | 0.47 | 0.84 | 0.77 |
| 25.8 | 430 | Cc1ccccc1Nc1nc(CO)c(C)c(N2CCc3ccccc3C2C)n1.Cl (stereo not drawn) [Example 34, 6-hydroxymethyl-5-methyl-2-(2-methylphenylamino)-4-(1-methyl-1,2,3,4-tetrahydroisoquinolin-2-yl)pyrimidine hydrochloride] | 0.45 | 0.81 | 0.78 |
| 35.8 | 310 | Cc1nc(Nc2ccc(F)cc2)nc(N2CCc3cc(O)ccc3C2C)c1C.Cl (stereo not drawn) [Example 36, 5,6-dimethyl-2-(4-fluorophenylamino)-4-(1-methyl-6-hydroxy-1,2,3,4-tetrahydroisoquinolin-2-yl)pyrimidine hydrochloride] | 1.08 | 1.05 | 1.15 |
